Laboratory results from patent US12122799B2, “Antibiotics for veterinary staphylococcal infections” (THE GEORGE WASHINGTON UNIVERSITY, A CONGRESSIONALLY …, priority 2018, dated 2024).
Read-outs that look alike come from different tables or passages of the source.

Legend:
S. schleiferi = assay: Growth inhibition of Staphylococcus species assay; type: cell-based; details: read-out: Bacterial IC50 (Mean ± SD) S.s.
S. pseudintermedius [1] = assay: Growth inhibition of Staphylococcus species assay; type: cell-based; details: read-out: Bacterial IC50 (Mean ± SD) S.p.
S. chromogenes [2] = assay: Growth inhibition of Staphylococcus species assay; type: cell-based; details: read-out: Bacterial IC50 (Mean ± SD) S.c.
recombinant DXR enzyme [3] = assay: DXR enzyme activity assay; type: biochemical; details: recombinant S. chromogenes DXR, n=3; read-out: S. chromogenes IC50 (mean ± SD)
recombinant DXR enzyme [4] = assay: DXR enzyme activity assay; type: biochemical; details: read-out: S. schleiferi IC50 (mean ± SD)
S. aureus = type: cell-based; details: read-out: Bacterial IC50 (Mean ± SD) S.a.
S. schleferi = type: cell-based, S. schleiferi
S. pseudintermedius [5] = type: cell-based
S. chromogenes [6] = type: cell-based
P. falciparum = details: read-out: inhibition of P. falciparum growth IC50; cited from earlier work
[7] = S. schleiferi growth, LB media, 20 h, OD600

CC(=O)N(O)C/C=C/P(=O)(OCOC(=O)c1ccccc1)OCOC(=O)c1ccccc1 [KMH-102]
IC50 (S. schleiferi; [7]): 210 ± 50 nM

COCOCOCOP(=O)(/C=C/CN(O)C=O)OCOCOCOC [JXW-573]
IC50 (S. schleiferi; [7]): 30 nM
IC50 (S. pseudintermedius [1]; S. pseudintermedius growth, LB media, 20 h, OD600): 210 ± 40 nM
IC50 (S. chromogenes [2]; S. chromogenes growth, LB media, 20 h, OD600): 40 nM
IC50 (recombinant DXR enzyme [3]): 15200 ± 2360 nM
IC50 (recombinant DXR enzyme [4]; recombinant S. schleiferi DXR, n=3): 12600 ± 1880 nM

CC(C)(C)C(=O)OCOP(=O)(/C=C/CN(O)C(=O)CCCc1ccccc1)OCOC(=O)C(C)(C)C [JXW-168]
IC50 (S. schleiferi; [7]): 8700 nM

CC(C)(C)C(=O)OCOP(=O)(/C=C/CN(O)C(=O)c1ccccc1)OCOC(=O)C(C)(C)C [JXW-189]
IC50 (S. schleiferi; [7]): 1300 nM

O=CN(O)CCCP(=O)(O)O [fosmidomycin]
IC50 (S. schleiferi): 780 ± 130 nM
IC50 (S. pseudintermedius [1]): 310 ± 40 nM
IC50 (S. chromogenes [2]): 310 ± 10 nM
IC50 (S. aureus): > 100000 nM
IC50 (recombinant DXR enzyme [4]): 670 ± 60 nM
bacteriostatic or bactericidal in S. schleferi (S. schleferi): bacteriostatic
bacteriostatic or bactericidal in S. pseudintermedius (S. pseudintermedius [5]): bacteriostatic
bacteriostatic or bactericidal in S. chromogenes (S. chromogenes [6]): bacteriostatic
IC50 (P. falciparum): 90 to 350 nM
